Results from paper PMC9332213, “Simple Detection of DNA Methyltransferase with an Integrated Padlock Probe” (Biosensors, 2022).

Molecular target: T1, M.SssI (Spiroplasma monobiae, UniProt P15840)
T1 construct: gene sssIM
Experiment: padlock probe/RCA fluorescence methyltransferase activity assay with commercial M.SssI ([…] U/mL)
Format: biochemical

T1 sequence (P15840 whole entry): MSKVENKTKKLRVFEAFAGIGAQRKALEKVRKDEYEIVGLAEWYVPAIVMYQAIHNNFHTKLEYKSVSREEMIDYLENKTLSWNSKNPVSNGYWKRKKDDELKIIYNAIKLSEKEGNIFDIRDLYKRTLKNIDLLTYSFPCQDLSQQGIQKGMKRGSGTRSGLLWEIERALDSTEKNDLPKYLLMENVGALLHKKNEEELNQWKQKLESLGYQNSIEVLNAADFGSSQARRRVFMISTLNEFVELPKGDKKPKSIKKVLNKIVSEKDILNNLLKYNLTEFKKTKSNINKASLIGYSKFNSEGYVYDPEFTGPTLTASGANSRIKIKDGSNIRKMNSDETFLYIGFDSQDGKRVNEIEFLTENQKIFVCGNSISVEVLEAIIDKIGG

Row | SMILES | IC50 [µM]
1 | O=c1[nH]cc(F)c(=O)[nH]1 [5-F, 5-fluorouracil] | 8.84
2 | Nc1ncn([C@@H]2O[C@H](CO)[C@@H](O)[C@H]2O)c(=O)n1 [5-Aza, 5-Azacytidine] | 4.91
